Measurements: patent publication US7678787B2, “Pyrrolobenzodiazepine pyridine carboxamides and derivatives as follicle-stimulating hormone receptor antagonists” (Wyeth, priority 2005, dated 2010)
Read-outs that look alike come from different tables or passages of the source.

What was measured:
human FSH receptor = molecular target: T1, human FSH receptor (Homo sapiens, UniProt P23945); experiment: FSH receptor-dependent CRE-luciferase reporter gene assay (CHO FSH-R 6CRE-Luc cells); type: cell-based
T1 construct: host or cells: CHO-K1 (CHO FSH-R 6CRE-Luc, 1D7 cells)
T1 sequence (P23945 18-695): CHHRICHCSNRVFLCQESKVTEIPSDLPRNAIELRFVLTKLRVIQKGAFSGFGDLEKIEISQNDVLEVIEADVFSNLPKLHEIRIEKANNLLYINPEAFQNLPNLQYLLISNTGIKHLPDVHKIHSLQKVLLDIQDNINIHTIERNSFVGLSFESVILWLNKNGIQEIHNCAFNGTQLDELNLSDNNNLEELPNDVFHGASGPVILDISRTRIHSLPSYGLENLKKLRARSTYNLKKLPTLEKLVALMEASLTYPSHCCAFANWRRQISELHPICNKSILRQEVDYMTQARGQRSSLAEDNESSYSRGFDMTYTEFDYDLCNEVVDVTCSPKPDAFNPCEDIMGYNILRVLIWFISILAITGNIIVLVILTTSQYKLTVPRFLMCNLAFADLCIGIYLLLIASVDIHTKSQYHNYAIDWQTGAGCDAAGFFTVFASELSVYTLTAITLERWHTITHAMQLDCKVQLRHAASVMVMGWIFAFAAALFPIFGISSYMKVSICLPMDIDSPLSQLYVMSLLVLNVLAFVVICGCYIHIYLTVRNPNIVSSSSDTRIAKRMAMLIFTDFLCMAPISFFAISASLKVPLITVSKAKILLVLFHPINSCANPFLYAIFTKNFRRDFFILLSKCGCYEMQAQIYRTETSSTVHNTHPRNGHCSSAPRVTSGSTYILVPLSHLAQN

[1] = 2-dose format, test concentration in parentheses = 30 μM, percent inhibition of response to EC50 of FSH, read-out: CRE % inhibition

| melting point [°C] | inhibition at 30 µM (human FSH receptor; [1]) [%] | Compound | inhibition at 30 µM (human FSH receptor; read-out: CRE % inhibition (μM)) [%] |
| --- | --- | --- | --- |
| 175 | 35 | O=C(NCc1cccnc1)c1ccc2n1Cc1ccccc1N(C(=O)/C=C/c1ccccc1)C2 [Example 144] | – |
| 85 | 34 | CC(C)(C)c1ccc(OCC(=O)N2Cc3ccc(C(=O)NCc4cccnc4)n3Cc3ccccc32)cc1 [Example 135] | – |
| 188 | 40 | O=C(NCc1cccnc1)c1ccc2n1Cc1ccccc1N(C(=O)c1cccc3ccccc13)C2 [Example 145] | – |
| – | 4 | O=C(NCc1cccnc1)c1ccc2n1Cc1ccccc1N(C(=O)c1ccc(OCc3ccccc3)nc1)C2 [Example 134] | – |
| – | 16 | COc1cccc(CNc2ccc(C(=O)N3Cc4ccc(C(=O)NCc5cccnc5)n4Cc4ccccc43)cn2)c1 [Example 129] | – |
| – | 37 | O=C(NCc1cccnc1)c1ccc2n1Cc1ccccc1N(C(=O)c1ccc(Cl)cc1)C2 [Example 91] | – |
| – | 36 | Cc1cc(C(=O)N2Cc3ccc(C(=O)NCc4cccnc4)n3Cc3ccccc32)ccc1-c1cccc(Cl)c1 [Example 23] | – |
| – | 17.3 | COc1ccccc1-c1ccc(S(=O)(=O)N2Cc3ccc(C(=O)NCc4cccnc4)n3Cc3ccccc32)cc1 [Example 71] | – |
| – | 26 | CN(Cc1ccccc1)c1ccc(C(=O)N2Cc3ccc(C(=O)NCc4cccnc4)n3Cc3ccccc32)cn1 [Example 130] | – |
| – | 13 | N#Cc1ccc(C(=O)N2Cc3ccc(C(=O)NCc4cccnc4)n3Cc3ccccc32)cc1 [Example 90] | – |
| 83 | 16 | CC(Oc1ccccc1)C(=O)N1Cc2ccc(C(=O)NCc3cccnc3)n2Cc2ccccc21 (stereo not drawn) [Example 137] | – |
| – | – | O=C(NCc1cccnc1)c1ccc2n1Cc1ccccc1N(C(=O)c1ccc(N3CCCCC3)nc1)C2 [Example 125] | 31 |
| – | 32 | O=C(NCc1cccnc1)c1ccc2n1Cc1ccccc1N(C(=O)CSc1ccc(Br)cc1)C2 [Example 141] | – |
| – | 17 | Cc1ccccc1C(=O)N1Cc2ccc(C(=O)NCc3cccnc3)n2Cc2ccccc21 [Example 94] | – |
| 103 to 109 | 40 | O=C(NCc1cccnc1)c1ccc2n1Cc1ccccc1N(C(=O)c1c(F)cccc1F)C2 [Example 86] | – |
| 157 to 158 | 2.4 | O=C(NCc1cccnc1)c1ccc2n1Cc1ccccc1N(C(=O)c1ccccc1C(F)(F)F)C2 [Example 82] | – |

| melting point [°C] | inhibition at 30 µM (human FSH receptor; [1]) [%] | Compound | inhibition at 30 µM (human FSH receptor; read-out: CRE % inhibition (μM)) [%] |
| --- | --- | --- | --- |
| 153 to 155 | 48 | O=C(NCc1cccnc1)c1ccc2n1Cc1ccccc1N(C(=O)Cc1ccc(-c3ccccc3)cc1)C2 [Example 143] | – |
| – | 26 | O=C(NCc1cccnc1)c1ccc2n1Cc1ccccc1N(C(=O)c1ccc(NCCO)nc1)C2 [Example 132] | – |
| 138 to 140 | 45 | O=C(NCc1cccnc1)c1ccc2n1Cc1ccccc1N(C(=O)c1cc(F)cc(F)c1)C2 [Example 95] | – |
| – | 11 | Cc1cc(C(=O)N2Cc3ccc(C(=O)NCc4cccnc4)n3Cc3ccccc32)ccc1-c1ccc(Cl)c(Cl)c1 [Example 25] | – |
| – | 24 | O=C(NCc1cccnc1)c1ccc2n1Cc1ccccc1N(C(=O)c1ccc(Cl)nc1)C2 [Example 117] | – |
| – | 6.61 | O=C(NCc1cccnc1)c1ccc2n1Cc1ccccc1N(S(=O)(=O)c1ccc(-c3ccccc3Cl)cc1)C2 [Example 72] | – |
| – | 25 | Cc1cc(C(=O)N2Cc3ccc(C(=O)NCc4cccnc4)n3Cc3ccccc32)ccc1-c1c(C)cccc1C [Example 10] | – |
| – | 41 | O=C(NCc1cccnc1)c1ccc2n1Cc1ccccc1N(C(=O)c1cnccn1)C2 [Example 123] | – |
| – | 8 | O=C(NCc1cccnc1)c1ccc2n1Cc1ccccc1N(C(=O)C1CCCCC1)C2 [Example 149, 10-(CYCLOHEXYLCARBONYL)-N-(PYRIDIN-3-YLMETHYL)-10,11-DIHYDRO-5H-PYRROLO[2,1-C][1,4] BENZODIAZEPINE-3-CARBOXAMIDE] | – |
| 142 to 143 | 18 | O=C(NCc1cccnc1)c1ccc2n1Cc1ccccc1N(C(=O)c1ccccc1F)C2 [Example 97] | – |
| 172 to 175 | 21 | O=C(NCc1cccnc1)c1ccc2n1Cc1ccccc1N(C(=O)c1ccc(-c3cncnc3)cc1)C2 [Example 106] | – |
| – | 41 | O=C(NCc1cccnc1)c1ccc2n1Cc1ccccc1N(C(=O)COc1ccccc1)C2 [Example 136] | – |
| 103 to 107 | 35 | CC(C)(C)CC(=O)N1Cc2ccc(C(=O)NCc3cccnc3)n2Cc2ccccc21 [Example 148] | – |
| 170 to 172 | 38 | COC(=O)c1ccc(C(=O)N2Cc3ccc(C(=O)NCc4cccnc4)n3Cc3ccccc32)cc1 [Example 87, METHYL 4-{[3-{[(PYRIDIN-3-YLMETHYL)AMINO]CARBONYL}-5H-PYRROLO[2,1-C][1,4]BENZODIAZEPIN-10(11H)-YL]CARBONYL}BENZOATE] | – |
| 198 to 199 | 29 | O=C(c1ccccc1)c1ccccc1-c1ccc(C(=O)N2Cc3ccc(C(=O)NCc4cccnc4)n3Cc3ccccc32)cc1 [Example 60] | – |
| – | 34 | O=C(NCc1cccnc1)c1ccc2n1Cc1ccccc1N(C(=O)c1cccs1)C2 [Example 115] | – |
